Reference: patent publication US12018011B2, “Macrocyclic compounds and compositions, and methods of preparing and using the same” (Kura Oncology, Inc., priority 2021, dated 2024)

The compounds below were run against T1, Recombinant human farnesyl transferase (FTase) (Homo sapiens, UniProt P49356) (assay: FTase fluorescence assay (farnesylation of dansyl-GCVLS peptide)). Conditions: recombinant human FTase 2.5 nM, Dansyl-GCVLS 85 nM, FPP 30 nM, 30° C., 50 minutes.
T1 construct: purchased Crelux (Martinsried, Germany)
Type: biochemical

Row | Compound | IC50
1 | Cn1cncc1C1(O)c2ccc(Cl)c(c2)OCCc2cccc(c2)-c2cc(=O)[nH]c3ccc1cc23 (racemic) [Compound 25, (rac)-4^4-chloro-3-hydroxy-3-(1-methyl-1H-imidazol-5-yl)-2^1,2^2-dihydro-5-oxa-2(4,6)-quinolina-1,4(1,3)-dibenzenacycloheptaphan-2^2-one] | ≤ 10 nM
2 | Cn1cncc1[C@@]1(N)c2ccc(C#N)c(c2)OCc2cccc(c2)-c2cc(=O)n(C)c3ccc1cc23 [(S)-19, (S)-3-amino-2^1-methyl-3-(1-methyl-1H-imidazol-5-yl)-2^2-oxo-2^1,2^2-dihydro-5-oxa-2(4,6)-quinolina-1,4(1,3)-dibenzenacyclohexaphane-4^4-carbonitrile] | ≤ 10 nM
3 | Cn1cncc1[C@@]1(N)c2ccc(C#N)c(c2)COc2cccc(c2)-c2cc(=O)n(CC(O)CO)c3ccc1cc23 (stereo partly drawn) [(S)-69, (3S)-3-amino-2^1-(2,3-dihydroxypropyl)-3-(1-methyl-1H-imidazol-5-yl)-2^2-oxo-2^1,2^2-dihydro-6-oxa-2(4,6)-quinolina-1,4(1,3)-dibenzenacyclohexaphane-4^4-carbonitrile] | ≤ 10 nM
4 | [2H]C([2H])([2H])n1c(=O)cc2c3cc(ccc31)C(O)(c1nncn1C)c1ccc(Cl)c(c1)OCCc1cccc-2c1 (stereo not drawn) [Compound 32, 4^4-chloro-3-hydroxy-2^1-(methyl-d3)-3-(4-methyl-4H-1,2,4-triazol-3-yl)-2^1,2^2-dihydro-5-oxa-2(4,6)-quinolina-1,4(1,3)-dibenzenacycloheptaphan-2^2-one] | 10 to 100 nM
5 | [2H]C([2H])([2H])OC1(c2nncn2C)c2ccc(Cl)c(c2)OCCc2cccc(c2)-c2cc(=O)n(C([2H])([2H])[2H])c3ccc1cc23 (stereo not drawn) [Compound 33, 4^4-chloro-3-(methoxy-d3)-2^1-(methyl-d3)-3-(4-methyl-4H-1,2,4-triazol-3-yl)-2^1,2^2-dihydro-5-oxa-2(4,6)-quinolina-1,4(1,3)-dibenzenacycloheptaphan-2^2-one] | 10 to 100 nM
6 | Cn1cnnc1C1(O)c2ccc(C#N)c(c2)OCCc2cccc(c2)-c2cc(=O)n(C)c3ccc1cc23 (stereo not drawn) [Compound 38, 3-hydroxy-2^1-methyl-3-(4-methyl-4H-1,2,4-triazol-3-yl)-2^2-oxo-2^1,2^2-dihydro-5-oxa-2(4,6)-quinolina-1,4(1,3)-dibenzenacycloheptaphane-4^4-carbonitrile] | ≤ 10 nM
7 | CNC1(c2nncn2C)c2ccc(Cl)c(c2)COc2cccc(c2)-c2cc(=O)n(C)c3ccc1cc23 (stereo not drawn) [Compound 50, 4^4-chloro-2^1-methyl-3-(4-methyl-4H-1,2,4-triazol-3-yl)-3-(methylamino)-2^1,2^2-dihydro-6-oxa-2(4,6)-quinolina-1,4(1,3)-dibenzenacyclohexaphan-2^2-one] | ≤ 10 nM
8 | COc1cc2c3cc(ccc3n1)C(O)(c1cncn1C)c1ccc(C#N)c(c1)COc1cccc-2c1 (stereo not drawn) [Compound 53, 3-hydroxy-2^2-methoxy-3-(1-methyl-1H-imidazol-5-yl)-6-oxa-2(4,6)-quinolina-1,4(1,3)-dibenzenacyclohexaphane-4^4-carbonitrile] | ≤ 10 nM
9 | Cn1cncc1C1(O)c2ccc(C#N)c(c2)COc2cccc(c2)-c2cc(=O)[nH]c3ccc1cc23 (stereo not drawn) [Compound 54, 3-hydroxy-3-(1-methyl-1H-imidazol-5-yl)-2^2-oxo-2^1,2^2-dihydro-6-oxa-2(4,6)-quinolina-1,4(1,3)-dibenzenacyclohexaphane-4^4-carbonitrile] | ≤ 10 nM
10 | Cn1cncc1C1(O)c2cccc(c2)CCOc2cccc(c2)-c2cc(=O)n(C)c3ccc1cc23 (stereo not drawn) [Compound 63, 3-hydroxy-2^1-methyl-3-(1-methyl-1H-imidazol-5-yl)-2^1,2^2-dihydro-7-oxa-2(4,6)-quinolina-1,4(1,3)-dibenzenacycloheptaphan-2^2-one] | 10 to 100 nM
11 | COc1cc2c3cc(ccc3n1)C(O)(c1cncn1C)c1ccc(Cl)c(c1)CCOc1cccc-2c1 (stereo not drawn) [Compound 64, 4^4-chloro-2^2-methoxy-3-(1-methyl-1H-imidazol-5-yl)-7-oxa-2(4,6)-quinolina-1,4(1,3)-dibenzenacycloheptaphan-3-ol] | > 100 nM
12 | Cn1cncc1C1(N)c2ccc(C#N)c(c2)COc2cccc(c2)-c2cc(N3CCNCC3)nc3ccc1cc23 (stereo not drawn) [Compound 67, 3-amino-3-(1-methyl-1H-imidazol-5-yl)-2^2-(piperazin-1-yl)-6-oxa-2(4,6)-quinolina-1,4(1,3)-dibenzenacyclohexaphane-4^4-carbonitrile] | 10 to 100 nM
13 | Cn1cncc1C1(N)c2ccc(C#N)c(c2)COc2cccc(c2)-c2cc(NC3COC3)nc3ccc1cc23 (stereo not drawn) [Compound 68, 3-amino-3-(1-methyl-1H-imidazol-5-yl)-2^2-(oxetan-3-ylamino)-6-oxa-2(4,6)-quinolina-1,4(1,3)-dibenzenacyclohexaphane-4^4-carbonitrile] | 10 to 100 nM
14 | Cn1cncc1C1(N)c2ccc(Br)c(c2)COc2cccc(c2)-c2cc(Cl)nc3ccc1cc23 (stereo not drawn) [Compound 74, 4^4-bromo-2^2-chloro-3-(1-methyl-1H-imidazol-5-yl)-6-oxa-2(4,6)-quinolina-1,4(1,3)-dibenzenacyclohexaphan-3-amine] | 10 to 100 nM
15 | Cn1cncc1C1(N)c2ccc(Br)c(c2)COc2cccc(c2)-c2cc(OC3COC3)nc3ccc1cc23 (stereo not drawn) [Compound 75, 4^4-bromo-3-(1-methyl-1H-imidazol-5-yl)-2^2-(oxetan-3-yloxy)-6-oxa-2(4,6)-quinolina-1,4(1,3)-dibenzenacyclohexaphan-3-amine] | > 100 nM
16 | Cn1cncc1C1(N)c2ccc(Br)c(c2)COc2cccc(c2)-c2nc(N)nc3ccc1cc23 (stereo not drawn) [Compound 82, 4^4-bromo-3-(1-methyl-1H-imidazol-5-yl)-6-oxa-2(4,6)-quinazolina-1,4(1,3)-dibenzenacyclohexaphane-2^2,3-diamine] | ≤ 10 nM
17 | Cn1cncc1C1(O)c2ccc(Br)c(c2)COc2cccc(c2)-c2cncc3ccc1cc23 (stereo not drawn) [Compound 83, 4^4-bromo-3-(1-methyl-1H-imidazol-5-yl)-6-oxa-2(4,6)-isoquinolina-1,4(1,3)-dibenzenacyclohexaphan-3-ol] | ≤ 10 nM
18 | Cn1cncc1C1(O)c2ccc(Br)c(c2)COc2cccc(c2)-c2nccc3ccc1cc23 (stereo not drawn) [Compound 84, 4^4-bromo-3-(1-methyl-1H-imidazol-5-yl)-6-oxa-2(1,7)-isoquinolina-1,4(1,3)-dibenzenacyclohexaphan-3-ol] | 10 to 100 nM
19 | Cn1cncc1C1(O)c2ccc(C#N)c(c2)COc2cccc(c2)-c2nccc3ccc1cc23 (stereo not drawn) [Compound 85, 3-hydroxy-3-(1-methyl-1H-imidazol-5-yl)-6-oxa-2(1,7)-isoquinolina-1,4(1,3)-dibenzenacyclohexaphane-4^4-carbonitrile] | 10 to 100 nM
20 | COc1cc2c3cc(cnc3c1)C(O)(c1cncn1C)c1ccc(Br)c(c1)COc1cccc-2c1 (stereo not drawn) [Compound 87, 4^4-bromo-2^7-methoxy-3-(1-methyl-1H-imidazol-5-yl)-6-oxa-2(5,3)-quinolina-1,4(1,3)-dibenzenacyclohexaphan-3-ol] | > 100 nM
21 | COc1cc2c3cc(cnc3c1)C(O)(c1cncn1C)c1ccc(C#N)c(c1)COc1cccc-2c1 (stereo not drawn) [Compound 88, 3-hydroxy-2^7-methoxy-3-(1-methyl-1H-imidazol-5-yl)-6-oxa-2(5,3)-quinolina-1,4(1,3)-dibenzenacyclohexaphane-4^4-carbonitrile] | ≤ 10 nM

The compounds below were run on T24/83 cells (assay: T24/83 cell proliferation assay (CellTiter-Glo)). Conditions: Homo sapiens, 96 h, 4 days.
Type: cell-based
Text: T24/83 cell line was purchased from the European Collection of Authenticated Cell Cultures (Salisbury, UK). Recombinant human farnesyl transferase (FTase) and geranylgeranyl transferase type-1 (GGTase) were obtained from Crelux (Martinsried, Germany). Dansyl labelled GCVLS peptide was purchased from Bachem (Torrance, CA), and Dansyl labelled GCVLL peptide was purchased from Bio Synthesis (Lewisville, TX). Farnesyl Pyrophosphate (FPP) and Geranylgeranyl pyrophosphate (GGPP) were purchased from Cayman (Ann Arbor, MI).
Mutant oncogenic HRAS was originally identified in a human bladder carcinoma cell line called T24. T24/83 is a subline of T24 established more recently that has more favorable growth characteristics for in vitro assays. Thus, T24/83 is a well-characterized mutant HRAS-dependent cell line that is an ideal model for quantifying the HRAS-dependent antitumor activity of farnesyltransferase inhibitors.
T24/83 cells were inoculated into 384 well plates at 100 cells/well, and grown in the presence of inhibitor, 0.7% DMSO as a negative control, or 100 μM tipifarnib as a positive control, at 37° C. for 4 days. Cell viability was assessed using the CellTiter-Glo Kit (CTG) (Promega; Madison, WI). Luminescence was recorded using EnVision microplate reader (PerkinElmer; Waltham, MA). In this assay, tipifarmib was used as a positive control. All the assay plates passed the QC criteria (S/B, Z-factor).

Row | Compound | IC50
22 | Cn1cncc1C1(O)c2ccc(Cl)c(c2)OCCc2cccc(c2)-c2cc(=O)[nH]c3ccc1cc23 (racemic) [Compound 25, (rac)-4^4-chloro-3-hydroxy-3-(1-methyl-1H-imidazol-5-yl)-2^1,2^2-dihydro-5-oxa-2(4,6)-quinolina-1,4(1,3)-dibenzenacycloheptaphan-2^2-one] | 50 to 500 nM
23 | Cn1cncc1[C@@]1(N)c2ccc(C#N)c(c2)OCc2cccc(c2)-c2cc(=O)n(C)c3ccc1cc23 [(S)-19, (S)-3-amino-2^1-methyl-3-(1-methyl-1H-imidazol-5-yl)-2^2-oxo-2^1,2^2-dihydro-5-oxa-2(4,6)-quinolina-1,4(1,3)-dibenzenacyclohexaphane-4^4-carbonitrile] | ≤ 50 nM
24 | Cn1cncc1[C@@]1(N)c2ccc(C#N)c(c2)COc2cccc(c2)-c2cc(=O)n(CC(O)CO)c3ccc1cc23 (stereo partly drawn) [(S)-69, (3S)-3-amino-2^1-(2,3-dihydroxypropyl)-3-(1-methyl-1H-imidazol-5-yl)-2^2-oxo-2^1,2^2-dihydro-6-oxa-2(4,6)-quinolina-1,4(1,3)-dibenzenacyclohexaphane-4^4-carbonitrile] | > 500 nM
